The results in this text go back to US6552027B2, “Quinazolines for treating brain tumor” (Parker Hughes Institute, priority 1998, dated 2003).

“And” between values parts separate entries of the source, which are not always exact repeats. Equal entries are not always repeated. Where two headings read alike, the source gives them in different places.

The test system of data set [1] is U373 human glioblastoma cells. Description: SCID mouse xenograft model of human glioblastoma. The following applies: for in vivo anti-tumor activity / tumor-free survival (in words): daily i.p. doses for 10 days starting the day after inoculation. Here is the method:
The right hind legs of the CB. 17 SCID mice were inoculated subcutaneously (s.c.) with 0.5×10^6 U373 human glioblastoma cells in 0.2 mL PBS. […] Daily treatments with PBS, unconjugated EGF (1 mg/kg/dose), and unconjugated WHI-P154 (1 mg/kg/dose) were used as controls. Mice were monitored daily for health status and tumor growth, and were sacrificed if they became moribund developed tumors which impeded their ability to attain food or water, at the end of the 3-month observation period. Tumors were measured using Vernier calipers twice weekly, and the tumor volumes were calculated according to the following formula (Friedman, S. H., mDolan, M. E., Pegg, A. E., Marcelli, S., Keir, S., Catino, J. J., Binger, D. D., Schold, S. C., Jr., 1995, Cancer Res., 55:2853-2857): [formula]
For histopathologic studies, tissues were fixed in 10% neutral buffered formalin, dehydrated, and embedded in paraffin by routine methods. Glass slides with affixed 6 micron tissue sections were prepared and stained with hematoxylin/eosin. Primary endpoints of interest were tumor growth and tumor-free survival outcome. Estimation of life table outcome and comparisons of outcome between groups were done, as previously reported (Waurzyniak, et al., 1997, Clinical Cancer Research 3:881-890; Anderson, et al., 1995, Cancer Res. 55:1321-1327; Uckun, et al., 1997, J. Clin. Oncol. 15:2214-2221).

The test system of data set [2] is U373 cells. Description: EGF-stimulated cell adhesion to poly-L-lysine coated plates. The class given is cell-based, human. The following applies: stimulation with 250 ng/ml EGF, baseline 33.2±5.2%, P<0.02. The method, then:
To study the effects of quinazoline derivatives on EGF-stimulated cell adhesion, the trypsinized and recovered cells were incubated with varying concentrations ranging from 1 μM to 50 μM of quinazolines for 4 hours at 37° C., then stimulated with 250 ng/ml of EGF and examined for their ability to adhere to poly-L-lysine coated plates.
For the EGF stimulation experiments, the cells were plated in the presence of 250 ng/ml of EGF and allowed to adhere for 1 hour. The non-adherent cells were removed by gently washing the cells with PBS and then the adherent fraction was quantitated as described above for Example 6.

Data set [3] concerns U373 human glioblastoma cell line. Description: MTT cytotoxicity assay, U373 glioblastoma cells. To be noted: U373. The method, then: (§1) The cytotoxicity assay of various compounds against human brain tumor cell lines was performed using the MTT (3-[4,5-dimethylthiazol-2-yl]-2,5-diphenyl tetrazolium bromide) assay (Boehringer Mannheim Corp., Indianapolis, Ind.). Briefly, exponentially growing brain tumor cells were seeded into a 96-well plate at a density of 2.5×10^4 cells/well and incubated for 36 hours at 37° C. prior to drug exposure. […] Triplicate wells were used for each treatment.
Human glioblastoma cell line U373 was obtained from American. Type Culture Collection (Rockville, Md.) and maintained as a continuous cell line in Dulbecco's modified Eagles's medium supplemented with 10% fetal bovine serum and antibiotics. The B-lineage acute lymphoblastic leukemia cell line Nalm-6 was used as a negative control.
(§2) The cells were incubated with the various compounds for 24-36 hours at 37° C. in a humidified 5% CO2 atmosphere. To each well, 10 μl of MTT (0.5 mg/ml final concentration) was added and the plates were incubated at 37° C. for 4 hours to allow MTT to form formazan crystals by reacting with metabolically active cells. The formazan crystals were solubilized overnight at 37° C. in a solution containing 10% SDS in 0.01 M HCl. The absorbence of each well was measured in a microplate reader (Labsystems) at 540 nm and a reference wavelength of 690 nm. To translate the OD540 values into the number of live cells in each well, the OD540 values were compared to those on standard OD540—versus—cell number curves generated for each cell line. The percent survival was calculated using the formula: [formula]
(§3) The IC50 values were calculated by non linear regression analysis.

Data set [4] concerns U87 human glioblastoma cell line. Description: MTT cytotoxicity assay, U87 glioblastoma cells. It counts as cell-based. The method, then:
as §1, §2, §3
Apoptosis was also evaluated using the nick-end-labeling assay, as described for Example 3.

The subject of data set [5] is NALM-6 leukemia cells. Description: MTT cytotoxicity assay, EGF-R negative leukemia cells (negative control line). The class given is cell-based. The method, then:
Triplicate wells were used for each treatment.
Human glioblastoma cell line U373 was obtained from American.
The percent survival was calculated using the formula: [formula]

Data set [6] deals with U373 glioblastoma cells. Description: Uptake and internalization by immunofluorescence and confocal microscopy. It counts as cell-based, human. The following applies: 5 μg/ml.
Procedure: At the end of the incubation, cells were washed twice with PBS and fixed in 2% paraformaldehyde. The cells were permeabilized and non-specific binding sites were blocked with 2.5% BSA in PBS containing 0.1% Triton X-100 for 30 minutes. […] After rinsing with PBS, cells were incubated for 1 hour with a mixture of a goat anti-mouse IgG antibody conjugated to FITC (Amersham Corp., Arlington Heights, Ill.) and donkey anti-rabbit IgG conjugated to Texas Red (Amersham Corp.) at a dilution of 1:40 in PBS. Similarly, tubulin expression was examined by immunofluorescence using a monoclonal antibody against α-tubulin (Sigma Chemical Co, St. Louis, Mo.) at a dilution of 1:1000 and an anti-mouse IgG conjugated to FITC. Cells were washed in PBS and counterstained with toto-3 (Molecular Probes Inc., Eugene, Oreg.) for 10 minutes at a dilution of 1:1000. Cells were washed again with PBS and the coverslips were mounted with Vectashield (Vector Labs, Burlingame, Calif.) and viewed with a confocal microscope (Bio-Rad MRC 1024) mounted in a Nikon Labhophot upright microscope.
For data set [7], the system named is U373 glioma cells. Description: Morphology by anti-α-tubulin / TOTO-3 immunofluorescence. The class given is cell-based, human. The following applies: 25 μg/ml, 24 hours. The method, then: Cells were fixed in paraformaldehyde, immunostained with monoclonal antibody to EGF-R (green fluorescence) and counterstained with TOTO-3 (blue fluorescence) The immunostained cells were analyzed with a laser scanning confocal microscope. Blue fluorescence represents nuclei.
Immunofluorescence was used to (i) examine the surface expression of EGF-receptor (EGF-R) on brain tumor cells, (ii) evaluate the uptake of EGF-P154 by brain tumor cells and (iii) examine the morphologic features of EGF-P154 treated brain tumor cells.
At the end of the incubation, cells were washed twice with PBS and fixed in 2% paraformaldehyde. The cells were permeabilized and non-specific binding sites were blocked with 2.5% BSA in PBS containing 0.1% Triton X-100 for 30 minutes. […] After rinsing with PBS, cells were incubated for 1 hour with a mixture of a goat anti-mouse IgG antibody conjugated to FITC (Amersham Corp., Arlington Heights, Ill.) and donkey anti-rabbit IgG conjugated to Texas Red (Amersham Corp.) at a dilution of 1:40 in PBS. Similarly, tubulin expression was examined by immunofluorescence using a monoclonal antibody against α-tubulin (Sigma Chemical Co, St. Louis, Mo.) at a dilution of 1:1000 and an anti-mouse IgG conjugated to FITC. Cells were washed in PBS and counterstained with toto-3 (Molecular Probes Inc., Eugene, Oreg.) for 10 minutes at a dilution of 1:1000. […]

The test system of data set [8] is glioblastoma cells. Description: In situ apoptosis assay (TdT-mediated dUTP nick-end labeling). To be noted: 36 hours after treatment; FIGS. 6D and 6E. It counts as cell-based, human. Here is the method:
After a 36 hour incubation at 37° C. in a humidified 5% CO2 incubator, the supernatants were carefully aspirated and the cells were treated for 1-2 minutes with 0.1% trypsin. The detached cells were collected into a 15 ml centrifuge tube, washed with medium and pelleted by centrifugation at 1000 rpm for 5 minutes. Cells were resuspended in 50 μl of PBS, transferred to poly-L-lysine coated coverslips and allowed to attach for 15 minutes. The cells were washed once with PBS and incubated with equilibration buffer for 10 minutes at room temperature.
After removal of the equilibration buffer, cells were incubated for 1 hour at 37° C. with the reaction mixture containing terminal deoxynucleotidyl transferase (TdT) and […] for labeling of exposed 3′-hydroxyl ends of fragmented nuclear DNA. The cells were washed with PBS and incubated with anti-digoxigenin antibody conjugated to FITC for 1 hour at room temperature to detect the incorporated dUTP. After washing the cells with PBS, the coverslips were mounted onto slides with Vectashield containing propidium iodide (Vector Labs, Burlingame, Calif.) and viewed with a confocal laser scanning microscope. […] In control reactions, the TdT enzyme was omitted from the reaction mixture.

[9] abbreviates: read-out: IC50 value derived from the composite cell survival curve.
Where [10] appears, read: 500 μg/kg/day×10 days i.p., 5 mice.

Regarding “EGF: Recombinant human EGF produced in E. coli; used unconjugated as control and as adhesion stimulus”, in data set [1] (1 mg/kg/day×10 days i.p.), the “time at which tumors reached a size of 50 mm^3” value was determined as 34.0 ± 3.0 days. Further, the median tumor-free survival in data set [1] (1 mg/kg/day×10 days i.p., N=5) turned out to be 23 days. Further, the “in vivo anti-tumor activity / tumor-free survival (in words)” value in data set [1] was “inability”. Besides, the “fraction capable of adhering to poly-L-lysine coated plates” value in data set [2] is on record as 58.48±4.7%.

Regarding “EGF-P154: WHI-P154 attached to recombinant human EGF by photochemical conjugation with the crosslinking agent Sulfo-SANPAH”, the IC50 was 881 nM in data set [3] (setting [9]); 813 nM and 811 nM in data set [3] (read-out: mean IC50 value, 3 independent experiments, FIG. 5A); 588 to 950 nM in data set [3] (read-out: range of IC50 values, 3 independent experiments); 620 ± 97 nM in data set [4] (3 independent experiments, FIG. 5A, read-out: mean IC50 value); 487 to 761 nM in data set [4] (3 independent experiments, read-out: range of IC50 values); 601 nM in data set [4] (setting [9]). Further, in data set [5], the “cytotoxicity against EGF-R negative leukemia cells (in words)” value is recorded as “selective cytotoxicity to EGF-R positive glioblastoma cell lines only”. In addition, the “time at which internalized complexes were detected in the perinuclear region” value in data set [6] is at most 30 min. The “morphologic changes (in words)” value in data set [7] was “complete disruption of microtubules, marked shrinkage, nuclear fragmentation and inability to adhere to the substratum”. In addition, the “apoptotic nuclei by digoxigenin-dUTP incorporation (in words)” value in data set [8] is on record as “many apoptotic yellow nuclei”. Further, the “average size (mean±SE) of tumors at 40 days” value in data set [1] (500 μg/kg/day dose level, P=0.0003) is reported as 37.6±10.7 mm^3. For the same substance, in data set [1] (500 μg/kg/day dose level, P=0.002), the “average size (mean±SE) of tumors at 20 days” value is recorded as 1.0±1.1 mm^3. Further, in data set [1] (500 μg/kg/day×10 days), the “delay in reaching the 50 mm^3 tumor size versus control mice (PBS, EGF, or WHI-P154)” value is “approximately 11 days”. Further, in data set [1] (500 μg/kg/day×10 days i.p.), the “time at which tumors reached a size of 50 mm^3” value stood at 47.4 ± 7.1 days. In data set [1] (setting [10]), this substance had a median tumor-free survival of 33 days. Moreover, the “time within which all mice developed tumors” value in data set [1] (setting [10]) is at most 40 days. The “mice alive and free of detectable tumors for >58 days” value in data set [1] (1 mg/kg/day, 10 consecutive days) is 40%. In addition, the “enhancement of in vivo anti-tumor activity of WHI-P154 by conjugation to EGF” value in data set [1] (1 mg/kg/day×10 days, 53.2 nmol vs 2.9 nmol of WHI-P154) is above 8 fold. Further, the “tumor size in the remaining 60% of the mice” value in data set [1] (1 mg/kg/day×10 days, 58-day observation period) was at most 50 mm^3. Moreover, in data set [1] (0.5 and 1 mg/kg/day×10 days i.p.), the “toxicity of the applied dose levels (in words)” value is recorded as “nontoxic”. Moreover, the “in vivo anti-tumor activity / tumor-free survival (in words)” value in data set [1] is recorded as “significantly improved tumor-free survival in a dose-dependent fashion”; in data set [1] (listed as EGF-P54), “significant in vivo anti-tumor activity”.
